# Source: US20040029153A1, “Method for estimating metabolic function of xenobiotic and induction thereof” (priority 2000, published 2004)
# Like-named read-outs stand apart in the source and are kept apart here.
# B1: Prolactin: component of Landford's medium (protein, UniProt P01239 31-229, looked up)
# Prolactin: TPVCPNGPGNCQVSLRDLFDRAVMVSHYIHDLSSEMFNEFDKRYAQGKGFITMALNSCHTSSLPTPEDKEQAQQTHHEVLMSLILGLLRSWNDPLYHLVTEVRGMKGAPDAILSRAIEIEEENKRLLEGMEMIFGQVIPGAKETEPYPVWSGLPSLQTKDEDARYSAFYNLLHCLRRDSSKIDTYLKLLNCRIIYNNNC
# What was measured:
# [1] = tested on: primary human hepatocytes; test: Effect of culture medium components on rifampicin induction of testosterone hydroxylation activity; format: cell-based
# [2] = tested on: CYP3A; test: Induction of testosterone hydroxylation activity in primary human hepatocytes
# [3] = tested on: CYP3A mRNA; settings: hepatocytes
# [4] = tested on: CYP3A4
# Method: The cells in the suspension were seeded in a 12-well culture plate coated with collagen at the density of 6×10^5 cells/well, and the plate was incubated one day and night in the CO2 incubator. Subsequently, the culture medium containing 10% fetal bovine serum was removed, 1 ml of fresh serum-free Lanford's medium was added to each well, and the cells were maintained in the CO2 incubator. The inside of the CO2 incubator used in the present invention was maintained at 37° C. in an atmosphere of 5% […] saturated with vapor.
# 10 μl of the sample was electrophoresed on polyacrylamide gel, and blotted onto PVDF transfer membrane.
# [5] = tested on: primary human hepatocytes; test: Ethoxycoumarin dealkylation and coumarin conjugation activities in primary human hepatocytes; format: in vitro ADME; settings: HH-110 and HH-118; benz[a]anthracene 5 μmol/L, 3-methylcholanthrene 2 μmol/L; one day and night
# Method: Lanford's medium (1 mL) containing 75 μmol/L of 7-ethoxycoumarin was added to each well after the culture medium was removed, and the plate was incubated for two hours in the CO2 incubator to allow reaction. Whole volume of each reaction was recovered and stored at −80° C. until measurement. The cells were washed twice with Lanford's medium, and maintained in the CO2 incubator again or directly used as a sample for another test. The stored reactions were thawed, and 50 μl of the reaction was analyzed by liquid chromatography, ethoxycoumarin dealkylation activity and glucuronate and sulfate conjugation activities were comprehensively estimated based on the production of 7-hydroxycoumarin, 7-hydroxycoumarin glucuronide and 7-hydroxycoumarin sulfate. Herein, 7-ethoxycoumarin is converted to 7-hydroxycoumarin after dealkylation, and then conjugated by glucuronate and sulfate.
# The cells maintained under the conditions considered optimal in Examples 8 and 9 were continued to be added with 5 μmol/L of benz[a]anthracene or 2 μmol/L of 3-methylcholanthrene one day and night, and then the changes in ethoxycoumarin dealkylation activity was investigated. HH-110 and HH-118 cells were used.
# Three samples per each condition i.e., control (Lane 1), adding of 3-methylcholanthrene (Lane 2) and benz[a]anthracene (Lane 3) which were measured independently, and the mean values are shown. […]
# [6] = tested on: CYP1A1/2; test: Western blotting of CYP1A protein in cryopreserved primary human hepatocytes; settings: HH-110 and HH-118; 3-methylcholanthrene 2 μmol/L, benz[a]anthracene 5 μmol/L; one day and night; vs control
# [7] = tested on: CYP1A; test: Induction of ethoxyresorfin dealkylation activity in primary human hepatocytes; format: in vitro ADME; settings: HH-110
# Method: After the culture medium was completely removed from the culture plate, Lanford's medium (1 mL) containing 8 μmol/L of 7-ethoxyresorfin and 10 μmol/L of dicumarol was added to each well, and the plate was incubated for 30 minutes in the CO2 incubator to allow reaction. Whole volume of each reaction was recovered and stored at −80° C. until measurement. The cells were washed twice with Lanford's medium, and maintained in the CO2 incubator again or directly used as a sample for another test.
# The stored reactions were thawed, and accurately 75 μL of each reaction was removed and mixed with 0.1 mol/L of acetate-sodium acetate buffer (pH 4.4, 25 μL) containing 15 Fishman units of β-glucuronidase [EC 3.2.1.31] and 120 Roy units of sulfatase [EC 3.1.6.1], followed by conjugation reaction for two hours at 37° C. Ethanol (200 μL) was added to the reaction and subjected to centrifugation. The supernatant (200 μL) was transferred to a 96-well microtiter plate. Microplate reader (Labsystems, Fluoroscan Ascent) was used to measure the fluorescence intensity at the wavelength of 590 nm when excited with excitation light at the wavelength of 544 nm. The resorfin production figured out from the result was used to measure the ethoxyresorfin dealkylation activity.
# The cells maintained under the conditions considered optimal in Examples 8 and 9 were continued to be added with 1 μmol/L of 3-methylcholanthrene for three days, and the changes in ethoxyresorfin dealkylation activity was investigated. HH-110 cells were used.
# Primary human hepatocytes (HH-110) were continued to be loaded with 1 μmol/L of 3-methylcholanthrene for three days between days 4th to 7th post seeding (indicated by a crossbar in the figure), and these cells had been maintained further for five days again in the conventional Lanford's medium. During this period, measurement of ethoxyresorfin dealkylation activity was conducted at 8 times to investigate the changes in the activity. Three samples per condition were measured independently, and the mean values are shown. The standard deviations are indicated by error bar. […]
molecule,measurement,setting,value
C[C@]12CCC(=O)C=C1CC[C@@H]1[C@@H]2[C@@H](O)C[C@@]2(C)[C@H]1CC[C@]2(O)C(=O)CO [hydrocortisone],effect of medium component on maintenance of testosterone hydroxylation activity,"[1]; HH-110, hydrocortisone-free vs conventional Landford's medium",essential
C[C@]12C=CC(=O)C=C1CC[C@@H]1[C@@H]2[C@@H](O)C[C@@]2(C)[C@H]1CC[C@]2(O)C(=O)CO [predonisolone],induction of testosterone hydroxylation activity with glucocorticoid instead of hydrocortisone in medium,"[1]; HH-110, 1 μmol/L in medium, rifampicin 10 μmol/L for three days",can be observed
Clc1ccccc1C(c1ccccc1)(c1ccccc1)n1ccnc1 [clotrimazole],"testosterone hydroxylation activity, concentration-dependence of induction","[2]; HH-110, different concentrations",increase of the testosterone hydroxylation activity was not observed
same,"CYP3A mRNA level, concentration-dependence of induction",[3],increase of the mRNA level was observed
CCC1(c2ccccc2)C(=O)NC(=O)NC1=O [phenobarbital],day of maximum testosterone hydroxylation activity after addition,"[2]; HH-110, rifampicin 10 μmol/L, phenobarbital 1 mmol/L, loaded for four days",4 days
same,testosterone hydroxylation activity,"[2]; five donors (HH-018, HH-022, HH-029, HH-110, HH-118), rifampicin 10 μmol/L, phenobarbital 1 mmol/L, four days",Increases
same,CYP3A4 expression (western blotting),[4],not marked
same,CYP 3A mRNA (CYP3A/β-actin),[3],Increases
cholera toxin,effect of medium component on induction of testosterone hydroxylation activity,[1],enhancing factors
c1ccc2cc3c(ccc4ccccc43)cc2c1 [benz[a]anthracene],"production of 7-hydroxycoumarin, 7-hydroxycoumarin glucronide and 7-hydroxycoumarin sulfate",[5],increases
same,CYP1A1/2 expression (western blotting),[6],increased
Cc1ccc2cc3c(ccc4ccccc43)c3c2c1CC3 [3-methylcholanthrene],ethoxyresorfin dealkylation activity during continued addition,"[7]; 1 μmol/L, added for three days",gradually decreased
same,time of maximum ethoxyresorfin dealkylation activity,"[7]; 1 μmol/L, added for three days",one day after 3-methylcholanthrene was added
same,ethoxyresorfin dealkylation activity after addition was stopped,[7]; after three days of 1 μmol/L,returned to their original state prior to the addition of the compounds in a day
same,"production of 7-hydroxycoumarin, 7-hydroxycoumarin glucronide and 7-hydroxycoumarin sulfate",[5],increases
same,CYP1A1/2 expression (western blotting),[6],increased
B1,effect of medium component on induction of testosterone hydroxylation activity,"[1]; HH-110, component-free vs conventional Landford's medium, induction by rifampicin",enhancing factors
